Columns and labels:
Assay type in all cases: in vivo
[1] = tested on: barnyardgrass (Echinochloa crus-galli); assay: Test B flooded paddy test; details: Rate 1000 g/ha, scale of 0 to 100 where 0 is no effect and 100 is complete control, visually evaluated after 13 to 15 days
In short: (§1)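 Plants were grown to the 2-leaf stage in flooded paddy conditions before treatment with the formulated test chemicals. After 13 to 15 days in a greenhouse, each species was visually compared with untreated controls and rated from 0 (no effect) to 100 (complete control).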

[2] = tested on: duck salad (Heteranthera limosa); assay: Test B flooded paddy test; details: Rate 1000 g/ha, scale of 0 to 100 where 0 is no effect and 100 is complete control, visually evaluated after 13 to 15 days
In short: as §1

rice (Oryza saliva) [3] = assay: Test B flooded paddy test; details: Rate 1000 g/ha, scale of 0 to 100 where 0 is no effect and 100 is complete control, visually evaluated after 13 to 15 days
In short: as §1

[4] = tested on: smallflower flatsedge (Cyperus difformis); assay: Test B flooded paddy test; details: Rate 1000 g/ha, scale of 0 to 100 where 0 is no effect and 100 is complete control, visually evaluated after 13 to 15 days
In short: as §1

[5] = tested on: cocklebur (Xanthium strumarium); assay: Test C postemergence
In short: (§2)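 Formulation: non-phytotoxic solvent mix incl. surfactant. Pre: applied right after planting. Post: 1–4-leaf seedlings. Read: visual 0–100, day 12–14, greenhouse.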

corn (Zea mays) = assay: Test C postemergence
In short: as §2

[6] = tested on: crabgrass (Digitaria sanguinalis); assay: Test C postemergence
In short: as §2

[7] = tested on: barnyardgrass (Echinochloa crus-galli); assay: Test C flooded paddy test; details: for Barnyardgrass plant response rating: Flooded Paddy, scale 0 to 100, 0 no effect, 100 complete control; for Plant response rating, Barnyardgrass / Plant response rating (scale 0 to 100), Barnyardgrass: flooded paddy test; for Plant response rating, Barnyardgrass: scale 0 to 100 (0 no effect, 100 complete control)
In short: (§3)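 Flooded paddy, 2-leaf stage at treatment. Readout: visual % control vs untreated, 0–100, at 12–14 d in greenhouse.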

[8] = tested on: duck salad (Heteranthera limosa); assay: Test C flooded paddy test; details: for Ducksalad plant response rating: Flooded Paddy, scale 0 to 100, 0 no effect, 100 complete control; for Plant response rating, Ducksalad / Plant response rating (scale 0 to 100), Ducksalad: flooded paddy test; for Plant response rating, Ducksalad: scale 0 to 100 (0 no effect, 100 complete control)
In short: as §3

rice (Oryza saliva) [9] = assay: Test C flooded paddy test; details: for Rice plant response rating: Flooded Paddy, scale 0 to 100, 0 no effect, 100 complete control; for Plant response rating, Rice / Plant response rating (scale 0 to 100), Rice: flooded paddy test; for Plant response rating, Rice: scale 0 to 100 (0 no effect, 100 complete control)
In short: as §3

[10] = tested on: smallflower flatsedge (Cyperus difformis); assay: Test C flooded paddy test; details: for Flatsedge plant response rating: Flooded Paddy, scale 0 to 100, 0 no effect, 100 complete control; for Plant response rating, Flatsedge / Plant response rating (scale 0 to 100), Flatsedge: flooded paddy test; for Plant response rating, Flatsedge: scale 0 to 100 (0 no effect, 100 complete control)
In short: as §3

Nightshade = assay: Test C preemergence; details: Rate 250 g/ha, visual evaluation after 12 to 14 days
Sunflower [11] = assay: Test C preemergence; details: Rate 125 g/ha, scale 0 to 100, 0 no effect, 100 complete control
Sunflower [12] = assay: Test C preemergence; details: Rate 31 g/ha, scale 0 to 100
[13] = Rate 125 g/ha, scale 0 to 100, 0 no effect, 100 complete control
[14] = Rate 250 g/ha, scale 0 to 100 (0 no effect, 100 complete control)
[15] = Rate 500 g/ha, scale 0 to 100 (0 no effect, 100 complete control)
[16] = Rate 16 g/ha, visually evaluated after 12 to 14 days, 0 = no effect, 100 = complete control
[17] = under head Rate 16 g/ha, (own rate not given), after 12 to 14 days

Row | Structure (SMILES) | Plant response rating, Barnyardgrass [1] | Plant response rating, Ducksalad [2] | Plant response rating, Rice (rice (Oryza saliva) [3]) | Plant response rating, Flatsedge [4] | Barnyardgrass plant response rating ([7]; Rate 250 g/ha) | Barnyardgrass plant response rating ([7]; Rate 500 g/ha) | Plant response rating, Barnyardgrass ([7]; Rate 62 g/ha) | Plant response rating, Barnyardgrass ([7]; Rate 125 g/ha) | Ducksalad plant response rating ([8]; Rate 250 g/ha) | Ducksalad plant response rating ([8]; Rate 500 g/ha) | Plant response rating, Ducksalad ([8]; Rate 62 g/ha) | Rice plant response rating (rice (Oryza saliva) [9]; Rate 250 g/ha) | Rice plant response rating (rice (Oryza saliva) [9]; Rate 500 g/ha) | Plant response rating, Rice (rice (Oryza saliva) [9]; Rate 62 g/ha) | Plant response rating, Rice (rice (Oryza saliva) [9]; Rate 125 g/ha) | Flatsedge plant response rating ([10]; Rate 250 g/ha) | Flatsedge plant response rating ([10]; Rate 500 g/ha) | Plant response rating, Flatsedge ([10]; Rate 62 g/ha) | Plant response rating, Flatsedge ([10]; Rate 125 g/ha) | Plant response rating, Sunflower (Sunflower [11]) | also measured
1 | CC(C)(C)c1ccn(C2SCN(c3cccc(OC(F)(F)F)c3)C2=O)n1 (centres unmarked) [Compound 30] | 100 | 100 | 90 | 100 | 100 | 100 | 100 | 100 | 100 | 100 | 70 | 80 | 80 | 0 | 20 | 100 | 100 | 90 | 100 | 80 | Plant response rating, Cocklebur [5, 13]: 30; Plant response rating, Cocklebur [5, 14]: 30; Plant response rating, Cocklebur [5, 15]: 50; Plant response rating, Corn (corn (Zea mays); [13]): 20; Plant response rating, Corn (corn (Zea mays); [14]): 30; Plant response rating, Corn (corn (Zea mays); [15]): 40; Plant response rating, Crabgrass [6, 13]: 30; Plant response rating, Crabgrass [6, 14]: 30; Plant response rating, Crabgrass [6, 15]: 90; Plant response rating (scale 0 to 100), Barnyardgrass [7, 16]: 80; Plant response rating (scale 0 to 100), Barnyardgrass [7, 17]: 60; Plant response rating, Ducksalad ([8]; Rate 125 g/ha): 100; Plant response rating (scale 0 to 100), Ducksalad [8, 16]: 50; Plant response rating (scale 0 to 100), Ducksalad [8, 17]: 0; Plant response rating (scale 0 to 100), Rice (rice (Oryza saliva) [9]; [16]): 0; Plant response rating (scale 0 to 100), Rice (rice (Oryza saliva) [9]; [17]): 0; Plant response rating (scale 0 to 100), Flatsedge [10, 16]: 90; Plant response rating (scale 0 to 100), Flatsedge [10, 17]: 90; Plant response rating (0 to 100), Nightshade (Nightshade): 100
2 | CCC(CC)c1ccn(C2SCN(c3cccc(C(F)(F)F)c3)C2=O)n1 (centres unmarked) [Compound 21] | 100 | 100 | 90 | 100 | 50 | 100 | 40 | 50 | 90 | 100 | 80 | 70 | 70 | 0 | 20 | 90 | 100 | 80 | 90 | 70 | Plant response rating, Cocklebur ([5]; Rate 31 g/ha, scale 0 to 100): 20; Plant response rating, Cocklebur [5, 13]: 30; Plant response rating, Corn (corn (Zea mays); Rate 31 g/ha, scale 0 to 100): 0; Plant response rating, Corn (corn (Zea mays); [13]): 0; Plant response rating, Crabgrass ([6]; Rate 31 g/ha, scale 0 to 100): 0; Plant response rating, Crabgrass [6, 13]: 0; Plant response rating, Ducksalad ([8]; Rate 125 g/ha): 90; Plant response rating, Sunflower (Sunflower [12]): 20
3 | CC(C)c1ccn(C2SCN(c3cccc(OC(F)(F)F)c3)C2=O)n1 (centres unmarked) [Compound 31] | 100 | 100 | 90 | 100 | 90 | 100 | 80 | 80 | 100 | 100 | 70 | 90 | 90 | 30 | 60 | 100 | 100 | 100 | 100 | 30 | Plant response rating, Ducksalad ([8]; Rate 125 g/ha): 90; Plant response rating (0 to 100), Nightshade (Nightshade): 100
4 | O=C1C(n2ccc(C3CCCCC3)n2)SCN1c1cccc(C(F)(F)F)c1 (centres unmarked) [Compound 52] | 100 | 100 | 50 | 100 | 70 | 100 | 30 | 60 | 40 | 100 | 20 | 0 | 60 | 0 | 0 | 100 | 100 | 90 | 90 | 0 | Plant response rating (0 to 100), Nightshade (Nightshade): 30
5 | CCC(C)c1ccn(C2SCN(c3cccc(C(F)(F)F)c3)C2=O)n1 (centres unmarked) [Compound 20] | 100 | 100 | 100 | 100 | 100 | 100 | 70 | 100 | 100 | 100 | 100 | 60 | 70 | 0 | 20 | 100 | 100 | 90 | 100 | 40 | Plant response rating, Cocklebur [5, 14]: 60; Plant response rating, Corn (corn (Zea mays); [13]): 0; Plant response rating, Corn (corn (Zea mays); [14]): 0; Plant response rating, Crabgrass [6, 13]: 0; Plant response rating, Crabgrass [6, 14]: 0; Plant response rating, Ducksalad ([8]; Rate 125 g/ha): 100; Plant response rating (0 to 100), Nightshade (Nightshade): 90
